Results from patent publication US10696615B2, “Prenylated hydroxystilbenes” (The University of Sydney, priority 2011, dated 2020).
In brackets after ≈: the same amount, converted by molar mass. Like-named read-outs stand apart in the source and are kept apart here.

Legend:
MRSA = assay: MIC screening, broth microdilution (CLSI)
Method: The MICs were determined by the broth microdilution method according to the Clinical and Laboratory Standards Institute (CLSI) guidelines. The MIC screening was performed on 96-well plates containing the compounds in serial 2-fold dilutions from 64 to 0.06 μg/ml. The bacterial inoculations were prepared in cation-adjusted Mueller Hinton medium broth from cultures grown on appropriate agar plates which are prepared freshly every week. The growth controls and sterile controls were included in each assay plates. The assay plates were incubated in an ambient-air incubator at 35±2° C. for 16-20 hr (24 hr for MRSA), and bacterial growth was observed and recorded.
(§6) A. Revive bacterial strains from storage frozen (−80° C.) two days before the MIC screening. Streak onto surface of appropriate agar plates, and incubate the plates for 20-24 hr at 35±2° C. in an appropriate atmosphere.
(§7) B. Select 5-10 well-isolated colonies of similar morphology and restreak onto fresh agar plates using sterile loops. Incubate the plates for 20-24 hr at 35±2° C. in an appropriate atmosphere as above.
(§8) Compound stock solutions were prepared in 100% DMSO on the day of MIC screening and use immediately. Compound stock concentration=[(highest testing concentration)×103 μl/3 μl] (e.g. if the required highest testing concentration is 64 μg/ml in assay plates, stock concentration=64×103/3=2.2 mg/ml). The potency of testing compound is assumed as 100% unless otherwise stated whereas the potency of reference compound is calculated according to manufacturer's analysis data.
(§9) Eleven two-fold dilutions per compound were made then transferred 3 μl to each well of test plate. Final concentration of DMSO in the MIC screening is ˜3%.
(§10) B. Transfer colonies from fresh culture plates into 5 ml of saline with sterile loops and mix well. Measure and adjust turbidity to 0.5 McFarland barium sulphate standard using a turbidity meter. Alternatively, transfer 1-2 colonies into 500 μl of saline and adjust OD625 to ˜0.1 using a plate reader. […] Dilute bacterial inoculum 1:280 for Gram-positive and fastidious strains and 1:400 for Gram-negative strains into corresponding medium broth (CAMHB, CAMHB+3% lysed horse blood, HTM) (e.g. 35.6 μl of inoculum into 10 ml of CAMHB or 25 μl of inoculum into 10 ml of CAMHB). H. influenzae: HTM Streptococci: CAMHB+3% lysed horse blood Other strains in the panel: CAMHB 2.4. Prepare Assay Plates A. Add 100 μl of the bacterial inoculum to each well of the compound plates except wells B12, D12, F12 and H12. B. Add 100 μl of medium broth to wells B12, D12, F12 and H12 of the compound plates. […] Stack four plates together and cover with a sterile plate lid. Incubate in an ambient-air incubator at 35±2° C. for 16-20 hours (24 hours for MRSA). […] Perform Colony Counts A. Dilute the bacterial inoculum (0.5 McFarland) to a serial of 10-1 to 10-7 in saline solution (e.g. 100 μl bacterial inoculum+900 μl of saline). B. Spread 100 μl of each dilution (10-4, 10-5, 10-6, and 10-7) onto CAMHA plates in triplication, let the liquid soak into the agar for 10 minutes, invert the agar plates and incubate for 24 hr at 35±2° C. […] Record MICs and Calculate CFUs A. Open the compound plate layout in the compound management system, and check the assay plate barcode. B. Place the assay plate on the top of MIC reader, and adjust the magnification mirror to read each wells, record growth status as raw data. (Optional) Record photo image of each assay plates using high-speed high-resolution scanner. […] Determine MIC break points according to CLSI guideline. D. Count colonies and calculate CFU of bacterial inoculum.

Escherichia coli = assay: MIC screening, broth microdilution (CLSI)
Method: (§11) The minimum inhibition concentration (MIC) screening was performed with 14 bacterial strains and 4 compounds. The MICs were determined by the broth microdilution method according to the Clinical and Laboratory Standards Institute (CLSI) guidelines. The MIC screening was performed on 96-well plates containing the compounds in serial 2-fold dilutions from 64 to 0.06 μg/ml. The bacterial inoculations were prepared in cation-adjusted Mueller Hinton medium broth from cultures grown on appropriate agar plates which are prepared freshly every week. The growth controls and sterile controls were included in each assay plates. The assay plates were incubated in an ambient-air incubator at 35±2° C. for 16-20 hr (24 hr for MRSA), and bacterial growth was observed and recorded.
as §8, §9, §10

Streptococci = assay: MIC screening, broth microdilution (CLSI)
Method: as §11, §6
Streptococci: TSA II, 5% CO2
as §7, §8, §9, §10

Enterococci = assay: MIC screening, broth microdilution (CLSI)
Method: as §11, §6
Enterococci: TSA II, ambient air
as §7, §8, §9
B. Transfer colonies from fresh culture plates into 5 ml of saline with sterile loops and mix well. Measure and adjust turbidity to 0.5 McFarland barium sulphate standard using a turbidity meter. Alternatively, transfer 1-2 colonies into 500 μl of saline and adjust OD625 to ˜0.1 using a plate reader. C. Dilute bacterial inoculum 1:280 for Gram-positive and fastidious strains and 1:400 for Gram-negative strains into corresponding medium broth (CAMHB, CAMHB+3% lysed horse blood, HTM) (e.g. 35.6 μl of inoculum into 10 ml of CAMHB or 25 μl of inoculum into 10 ml of CAMHB). H. influenzae: HTM Streptococci: CAMHB+3% lysed horse blood Other strains in the panel: CAMHB 2.4. Prepare Assay Plates A. Add 100 μl of the bacterial inoculum to each well of the compound plates except wells B12, D12, F12 and H12. B. Add 100 μl of medium broth to wells B12, D12, F12 and H12 of the compound plates. C. Stack four plates together and cover with a sterile plate lid. Incubate in an ambient-air incubator at 35±2° C. for 16-20 hours (24 hours for MRSA). […] Perform Colony Counts A. Dilute the bacterial inoculum (0.5 McFarland) to a serial of 10-1 to 10-7 in saline solution (e.g. 100 μl bacterial inoculum+900 μl of saline). B. Spread 100 μl of each dilution (10-4, 10-5, 10-6, and 10-7) onto CAMHA plates in triplication, let the liquid soak into the agar for 10 minutes, invert the agar plates and incubate for 24 hr at 35±2° C. […] Record MICs and Calculate CFUs A. Open the compound plate layout in the compound management system, and check the assay plate barcode. B. Place the assay plate on the top of MIC reader, and adjust the magnification mirror to read each wells, record growth status as raw data. (Optional) Record photo image of each assay plates using high-speed high-resolution scanner. C. Determine MIC break points according to CLSI guideline. D. Count colonies and calculate CFU of bacterial inoculum.

TrkA = TrkA (Homo sapiens, UniProt P04629); assay: Kinase activity assay; assay type: biochemical; settings: listed = inhibited more than 60%
Method: (§1) • Kinase-Glo(Plus)/ADP-Gloassay buffer 25 mMHEPES, 10 mMMgCl2, 0.01% Triton X-100, 100 μg/mLBSA, 2.5 mMDTT, pH7.4. • Caliper assay buffer 100 mMHEPES, 10 mMMgCl2, 100 μl/L Brij35 (30%), 1 mMDTT, pH7.4. Assay Substrates • MBP protein, UnactiveMEK1, Rbprotein were purchased from SignalChem. Poly(glu:tyr)(4:1) was purchased from Sigma. PIP2 was purchased from Cayman. Peptide substrates were synthesized in HD Biosciences, China. ATP was purchased from Sigma. KinaseGloPlus reagent, KinaseGloreagent and ADP Gloreagent were purchased from Promega Assay Procedure—Caliper Format
(§2) Mix Kinases, substrate, ATP and compound in 96-well assay plate, total volume is 50 μL. Incubate assay plate at 30° C. for 1 hour. Stop reaction by adding 20 μL of 35 mM EDTA and transfer 26 μL stopped reaction to 384-well assay plate. Read the assay plate on the plate reader.
(§3) Mix Kinases, substrate, ATP and compound in 384-well assay plate, total volume is 10 μl. Incubate assay plate at 30° C. for 1 hour. Add 10 μl/well of ADP GloReagent to the assay plate, incubate at 27° C. for 40 min.
(§4) Add 20 μl/well Detection Reagent to the assay plate, incubate at 27° C. for 30 min. Read the assay plate on the plate reader
(§5) Mix Kinase, substrate, ATP and compound in 384-well assay plate, total volume is 10 μl. Incubate assay plate at 30° C. for 1 hour. Add 10 μl/well KinaseGlo(Plus) reagent to the reaction mixture, and then incubate at 27° C. for 20 min. Read the assay plate on plate reader. • Hundred percent effect was performed without compound and enzyme, but containing ATP and substrate. • Zero percent effect was carried out without compound, but containing ATP, substrate and enzyme. • SB202190 is reference compounds for kinase p38β; Staurosporine(STSP) is reference compound for the remaining kinases. Results

PI3Kα = PI3Kα (Homo sapiens, UniProt P42336); assay: Kinase activity assay; assay type: biochemical; settings: listed = inhibited more than 60%
Method: as §1, §2, §3, §4, §5

PI3Kγ = PI3Kγ (Homo sapiens, UniProt P48736); assay: Kinase activity assay; assay type: biochemical; settings: listed = inhibited more than 60%
Method: as §1, §2, §3, §4, §5

CDK2/CyclinA2 = CDK2/CyclinA2 (Homo sapiens, UniProt P24941); assay: Kinase activity assay; assay type: biochemical; settings: listed = inhibited more than 60%
Method: as §1, §2, §3, §4, §5

FLT3 = FLT3 (Homo sapiens, UniProt P36888); assay: Kinase activity assay; assay type: biochemical; settings: listed = inhibited more than 60%
Method: as §1, §2, §3, §4, §5

PI3Kδ = PI3Kδ (Homo sapiens, UniProt O00329); assay: Kinase activity assay; assay type: biochemical; settings: listed = inhibited more than 60%
Method: as §1, §2, §3, §4, §5

[1] = system: Acinetobacter calcoaceticus; assay: MIC screening, broth microdilution (CLSI)
Method: as §11, §8, §9, §10

[2] = Calculated Log partition coefficients (Log P)
Haemophilus influenzae = assay: MIC screening, broth microdilution (CLSI)
Method: as §11, §6
Haemophilus influenzae: chocolate agar, 5% CO2
as §7, §8, §9, §10

Pseudomonas aeruginosa = assay: MIC screening, broth microdilution (CLSI)
Method: as §11, §8, §9, §10

Klebsiella pneumoniae = assay: MIC screening, broth microdilution (CLSI)
Method: as §11, §8, §9, §10

Staphylococcus aureus = assay: MIC screening, broth microdilution (CLSI)
Method: as §11, §8, §9, §10

PI3Kβ = PI3Kβ (Homo sapiens, UniProt P42338); assay: Kinase activity assay; assay type: biochemical; settings: listed = inhibited more than 60%
Method: as §1, §2, §3, §4, §5

BT-549 = assay: NCI in vitro cancer screen, Breast Cancer; assay type: cell-based, human; settings: for GI50 / CC50: Homo sapiens; for CC50: read-out: LC50 (the source's name)
[3] = Staphylococcus aureus (ATCC 43300), Exp 2
[4] = Staphylococcus aureus (MRSA, Erythromycin & clindamycin-resistant), Exp 2
[5] = Staphylococcus aureus, ATCC43300 / MRSA
[6] = Streptococcus pneumoniae, ATCC49619, Streptococcus pneumoniae (ATCC 49619), Exp 1
[7] = Streptococcus pneumoniae, ATCC49619, Streptococcus pneumoniae (ATCC 49619), Exp 2
[8] = Streptococcus pneumoniae, Streptococcus pneumoniae (Erythromycin-resistant), Exp 1
[9] = Streptococcus pneumoniae, Streptococcus pneumoniae (Erythromycin-resistant), Exp 2
[10] = Streptococcus pyogenes, ATCC700942, Streptococcus pyogenes (ATCC 700942), Exp 1
[11] = Streptococcus pyogenes, ATCC700942, Streptococcus pyogenes (ATCC 700942), Exp 2
[12] = Enterococcus faecalis, ATCC29212, Enterococcus faecalis (ATCC 29212), Exp 1
[13] = Enterococcus faecalis, ATCC29212, Enterococcus faecalis (ATCC 29212), Exp 2
[14] = Enterococcus faecium, ATCC700221, Enterococcus faecium (ATCC 700221), Exp 1
[15] = Enterococcus faecium, ATCC700221, Enterococcus faecium (ATCC 700221), Exp 2
[16] = ATCC29213, Staphylococcus aureus (ATCC 29213), Exp 1
[17] = ATCC29213, Staphylococcus aureus (ATCC 29213), Exp 2
[18] = Staphylococcus aureus (Levofloxacin-resistant), Exp 1
[19] = Staphylococcus aureus (Levofloxacin-resistant), Exp 2

Sequence of PI3Kδ (O00329 whole entry, species assumed): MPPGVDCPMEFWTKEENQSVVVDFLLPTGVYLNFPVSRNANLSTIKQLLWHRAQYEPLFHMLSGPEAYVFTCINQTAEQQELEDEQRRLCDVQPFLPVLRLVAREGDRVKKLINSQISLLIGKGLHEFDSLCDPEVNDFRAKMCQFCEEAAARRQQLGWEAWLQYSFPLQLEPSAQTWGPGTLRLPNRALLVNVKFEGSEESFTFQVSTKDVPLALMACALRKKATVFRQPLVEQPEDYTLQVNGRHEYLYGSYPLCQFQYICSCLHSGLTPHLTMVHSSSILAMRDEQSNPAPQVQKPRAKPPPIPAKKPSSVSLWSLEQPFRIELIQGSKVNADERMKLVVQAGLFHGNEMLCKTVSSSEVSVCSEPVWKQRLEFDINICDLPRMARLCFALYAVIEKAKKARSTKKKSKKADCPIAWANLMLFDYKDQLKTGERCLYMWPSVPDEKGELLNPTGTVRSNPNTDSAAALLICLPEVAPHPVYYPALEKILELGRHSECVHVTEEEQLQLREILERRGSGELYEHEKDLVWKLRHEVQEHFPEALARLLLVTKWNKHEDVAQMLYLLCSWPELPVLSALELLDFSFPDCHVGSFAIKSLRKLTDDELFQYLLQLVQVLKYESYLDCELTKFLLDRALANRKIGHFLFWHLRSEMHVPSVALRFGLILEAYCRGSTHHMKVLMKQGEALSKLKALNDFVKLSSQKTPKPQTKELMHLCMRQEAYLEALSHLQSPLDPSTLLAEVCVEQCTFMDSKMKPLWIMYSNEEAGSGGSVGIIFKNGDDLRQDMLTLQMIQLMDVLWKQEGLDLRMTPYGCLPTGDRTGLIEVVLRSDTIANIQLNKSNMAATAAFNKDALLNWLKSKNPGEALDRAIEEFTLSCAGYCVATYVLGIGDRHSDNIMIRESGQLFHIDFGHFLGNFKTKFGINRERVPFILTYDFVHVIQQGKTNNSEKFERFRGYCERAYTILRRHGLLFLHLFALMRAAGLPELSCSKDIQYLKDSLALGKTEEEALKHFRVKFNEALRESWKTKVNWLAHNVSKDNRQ
Sequence of PI3Kδ (P27986 whole entry partner, species assumed): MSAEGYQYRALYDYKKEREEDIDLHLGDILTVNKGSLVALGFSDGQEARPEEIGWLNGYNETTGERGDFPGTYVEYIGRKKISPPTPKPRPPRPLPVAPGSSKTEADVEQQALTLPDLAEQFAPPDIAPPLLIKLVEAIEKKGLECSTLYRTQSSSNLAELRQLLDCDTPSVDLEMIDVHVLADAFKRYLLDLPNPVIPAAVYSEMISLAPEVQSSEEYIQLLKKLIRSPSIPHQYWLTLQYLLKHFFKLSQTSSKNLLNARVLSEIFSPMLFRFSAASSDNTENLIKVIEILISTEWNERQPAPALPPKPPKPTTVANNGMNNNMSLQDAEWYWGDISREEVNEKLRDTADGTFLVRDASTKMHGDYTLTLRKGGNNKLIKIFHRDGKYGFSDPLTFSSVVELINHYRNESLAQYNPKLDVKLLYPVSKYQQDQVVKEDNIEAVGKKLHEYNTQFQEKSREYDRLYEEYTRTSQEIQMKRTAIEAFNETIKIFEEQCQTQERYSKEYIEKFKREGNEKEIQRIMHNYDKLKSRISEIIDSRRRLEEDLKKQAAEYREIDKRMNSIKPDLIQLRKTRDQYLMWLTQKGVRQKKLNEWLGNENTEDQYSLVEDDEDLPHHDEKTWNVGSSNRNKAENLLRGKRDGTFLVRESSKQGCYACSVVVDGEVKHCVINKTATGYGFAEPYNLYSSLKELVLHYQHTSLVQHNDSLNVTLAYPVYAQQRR
Sequence of PI3Kγ (P48736 whole entry, species assumed): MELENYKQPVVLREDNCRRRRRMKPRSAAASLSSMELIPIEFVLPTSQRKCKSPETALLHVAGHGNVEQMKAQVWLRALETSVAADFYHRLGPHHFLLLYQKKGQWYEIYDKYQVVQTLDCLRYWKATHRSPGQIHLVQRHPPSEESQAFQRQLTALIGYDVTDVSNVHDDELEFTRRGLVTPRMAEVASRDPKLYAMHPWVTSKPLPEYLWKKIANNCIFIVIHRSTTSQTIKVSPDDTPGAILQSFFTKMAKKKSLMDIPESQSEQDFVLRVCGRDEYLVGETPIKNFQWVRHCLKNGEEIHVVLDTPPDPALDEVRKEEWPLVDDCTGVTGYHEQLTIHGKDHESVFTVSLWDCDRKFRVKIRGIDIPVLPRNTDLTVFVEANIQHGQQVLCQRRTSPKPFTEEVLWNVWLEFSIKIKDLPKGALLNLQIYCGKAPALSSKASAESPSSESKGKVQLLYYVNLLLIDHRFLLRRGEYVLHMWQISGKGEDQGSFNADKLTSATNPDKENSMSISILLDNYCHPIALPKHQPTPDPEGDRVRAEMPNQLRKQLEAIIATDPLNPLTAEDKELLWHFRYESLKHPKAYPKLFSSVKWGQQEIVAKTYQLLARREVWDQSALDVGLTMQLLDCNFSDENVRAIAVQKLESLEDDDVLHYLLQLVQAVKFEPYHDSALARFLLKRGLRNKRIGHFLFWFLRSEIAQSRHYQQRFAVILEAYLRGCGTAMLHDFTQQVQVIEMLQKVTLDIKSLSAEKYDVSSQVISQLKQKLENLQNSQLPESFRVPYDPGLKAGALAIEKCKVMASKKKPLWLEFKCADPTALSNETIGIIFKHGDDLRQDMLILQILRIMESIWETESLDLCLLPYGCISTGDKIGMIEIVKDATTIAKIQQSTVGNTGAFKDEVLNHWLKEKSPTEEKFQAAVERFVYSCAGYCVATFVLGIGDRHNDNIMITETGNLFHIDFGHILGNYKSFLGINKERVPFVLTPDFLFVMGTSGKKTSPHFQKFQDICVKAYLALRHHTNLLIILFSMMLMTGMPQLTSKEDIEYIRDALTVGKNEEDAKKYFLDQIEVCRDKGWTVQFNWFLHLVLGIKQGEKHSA
Sequence of TrkA (P04629 33-796, species assumed): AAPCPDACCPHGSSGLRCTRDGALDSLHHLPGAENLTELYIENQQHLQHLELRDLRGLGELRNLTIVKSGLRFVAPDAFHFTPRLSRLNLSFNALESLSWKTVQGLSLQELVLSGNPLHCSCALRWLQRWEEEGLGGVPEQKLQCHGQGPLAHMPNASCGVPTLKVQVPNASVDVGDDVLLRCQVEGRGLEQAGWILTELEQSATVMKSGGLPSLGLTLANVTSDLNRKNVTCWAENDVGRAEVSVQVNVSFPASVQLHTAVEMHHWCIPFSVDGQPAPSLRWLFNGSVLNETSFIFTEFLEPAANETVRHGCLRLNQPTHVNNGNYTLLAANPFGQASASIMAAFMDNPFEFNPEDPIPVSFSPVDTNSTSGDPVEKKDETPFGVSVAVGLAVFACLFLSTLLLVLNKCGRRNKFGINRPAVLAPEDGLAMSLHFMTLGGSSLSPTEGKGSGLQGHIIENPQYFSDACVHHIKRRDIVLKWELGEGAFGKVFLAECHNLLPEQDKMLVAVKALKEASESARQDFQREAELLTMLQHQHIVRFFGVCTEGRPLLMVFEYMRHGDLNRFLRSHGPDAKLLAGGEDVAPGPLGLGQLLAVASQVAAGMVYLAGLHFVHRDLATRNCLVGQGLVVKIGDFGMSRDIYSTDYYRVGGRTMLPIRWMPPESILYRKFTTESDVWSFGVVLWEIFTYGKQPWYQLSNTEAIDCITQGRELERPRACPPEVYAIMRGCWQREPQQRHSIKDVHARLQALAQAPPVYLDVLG
Sequence of PI3Kβ (P42338 whole entry, species assumed): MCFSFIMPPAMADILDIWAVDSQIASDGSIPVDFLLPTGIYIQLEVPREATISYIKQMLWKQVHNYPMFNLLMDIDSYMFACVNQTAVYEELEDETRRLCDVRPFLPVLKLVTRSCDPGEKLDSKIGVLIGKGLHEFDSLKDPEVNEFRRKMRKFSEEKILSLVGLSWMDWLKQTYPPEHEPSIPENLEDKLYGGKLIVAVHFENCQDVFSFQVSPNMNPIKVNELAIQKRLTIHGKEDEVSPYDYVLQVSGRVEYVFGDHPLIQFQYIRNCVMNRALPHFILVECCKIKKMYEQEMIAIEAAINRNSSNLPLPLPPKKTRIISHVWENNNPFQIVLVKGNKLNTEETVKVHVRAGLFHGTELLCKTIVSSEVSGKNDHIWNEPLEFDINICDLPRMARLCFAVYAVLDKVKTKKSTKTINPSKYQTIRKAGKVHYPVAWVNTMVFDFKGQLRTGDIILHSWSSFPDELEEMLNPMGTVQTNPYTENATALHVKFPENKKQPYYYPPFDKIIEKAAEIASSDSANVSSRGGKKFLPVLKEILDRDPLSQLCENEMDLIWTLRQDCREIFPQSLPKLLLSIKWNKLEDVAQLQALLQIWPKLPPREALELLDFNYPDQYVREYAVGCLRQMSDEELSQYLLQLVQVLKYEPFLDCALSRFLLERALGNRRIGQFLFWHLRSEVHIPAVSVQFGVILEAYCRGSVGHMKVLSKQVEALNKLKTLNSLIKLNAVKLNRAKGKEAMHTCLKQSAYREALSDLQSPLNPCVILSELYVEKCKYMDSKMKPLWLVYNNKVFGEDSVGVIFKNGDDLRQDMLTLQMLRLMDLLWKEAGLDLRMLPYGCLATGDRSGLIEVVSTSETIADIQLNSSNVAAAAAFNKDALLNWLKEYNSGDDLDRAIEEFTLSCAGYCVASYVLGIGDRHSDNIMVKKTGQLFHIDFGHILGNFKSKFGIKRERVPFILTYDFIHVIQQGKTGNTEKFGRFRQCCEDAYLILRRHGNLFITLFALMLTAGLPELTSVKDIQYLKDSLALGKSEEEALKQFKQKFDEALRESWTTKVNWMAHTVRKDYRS
Sequence of PI3Kβ (P27986 whole entry partner, species assumed): as the sequence (P27986 whole entry partner, species assumed) above

Row | SMILES | MIC (MRSA; [3]) | MIC (MRSA; [4]) | MIC (MRSA; [5]) | MIC (MRSA; Staphylococcus aureus, MRSA) | MIC (Escherichia coli; Exp 1) | MIC (Escherichia coli; Exp 2) | MIC (Streptococci; [6]) | MIC (Streptococci; [7]) | MIC (Streptococci; [8]) | MIC (Streptococci; [9]) | MIC (Streptococci; [10]) | MIC (Streptococci; [11]) | MIC (Enterococci; [12]) | MIC (Enterococci; [13]) | MIC (Enterococci; [14]) | MIC (Enterococci; [15]) | Kinases that inhibited more than 60% (TrkA) | Kinases that inhibited more than 60% (PI3Kα) | Kinases that inhibited more than 60% (PI3Kγ) | Kinases that inhibited more than 60% (PI3Kδ) | further results
1 | COc1cc(/C=C/c2cc(O)cc(OC)c2CC=C(C)C)ccc1O [USYDS1, (E)-2-(3-methyl-2-buten-1-yl)-4′,5-dihydroxy-3,3′-dimethoxystilbene] | 8 µg/mL (≈ 23.5 µM) | 8 µg/mL (≈ 23.5 µM) | 8 µg/mL (≈ 23.5 µM) | 8 µg/mL (≈ 23.5 µM) | 16 µg/mL (≈ 47 µM) | 16 µg/mL (≈ 47 µM) | 32 µg/mL (≈ 94 µM) | 32 µg/mL (≈ 94 µM) | 32 µg/mL (≈ 94 µM) | 32 µg/mL (≈ 94 µM) | 64 µg/mL (≈ 188 µM) | 64 µg/mL (≈ 188 µM) | 16 µg/mL (≈ 47 µM) | 16 µg/mL (≈ 47 µM) | 8 µg/mL (≈ 23.5 µM) | 16 µg/mL (≈ 47 µM) | TrkA | PI3Kα | PI3Kγ | PI3Kδ | Kinases that inhibited more than 60% (CDK2/CyclinA2): CDK2/CyclinA2; Kinases that inhibited more than 60% (FLT3): FLT3; MIC [1]: > 64 µg/mL; MIC ([1]; Exp 2): >64 µg/mL; Log P relative to resveratrol [2]: almost twice that of the hydroxystilbene resveratrol; MIC (Haemophilus influenzae): 32 µg/mL (≈ 94 µM); MIC (Haemophilus influenzae; Exp 2): 32 µg/mL (≈ 94 µM); MIC (Pseudomonas aeruginosa): > 64 µg/mL; MIC (Pseudomonas aeruginosa; Exp 2): >64 µg/mL; MIC (Klebsiella pneumoniae): > 64 µg/mL; MIC (Klebsiella pneumoniae; Exp 2): >64 µg/mL; MIC (Staphylococcus aureus; [16]): 16 µg/mL (≈ 47 µM); MIC (Staphylococcus aureus; [17]): 8 µg/mL (≈ 23.5 µM); MIC (Staphylococcus aureus; [18]): 8 µg/mL (≈ 23.5 µM); MIC (Staphylococcus aureus; [19]): 8 µg/mL (≈ 23.5 µM)
2 | COc1cc(/C=C/c2cc(O)cc(OCC=C(C)C)c2)ccc1O [USYDS2, (E)-3-(3-methyl-2-butenyloxy)-4′,5-dihydroxy-3′-methoxystilbene] | 16 µg/mL (≈ 49 µM) | 16 µg/mL (≈ 49 µM) | 16 µg/mL (≈ 49 µM) | 16 µg/mL (≈ 49 µM) | 64 µg/mL (≈ 196 µM) | 32 µg/mL (≈ 98 µM) | 32 µg/mL (≈ 98 µM) | 32 µg/mL (≈ 98 µM) | 32 µg/mL (≈ 98 µM) | 64 µg/mL (≈ 196 µM) | 64 µg/mL (≈ 196 µM) | 64 µg/mL (≈ 196 µM) | 32 µg/mL (≈ 98 µM) | 32 µg/mL (≈ 98 µM) | 32 µg/mL (≈ 98 µM) | 32 µg/mL (≈ 98 µM) | TrkA |  | PI3Kγ | PI3Kδ | Kinases that inhibited more than 60% (PI3Kβ): PI3Kβ; MIC [1]: > 64 µg/mL; MIC ([1]; Exp 2): >64 µg/mL; Log P relative to resveratrol [2]: almost twice that of the hydroxystilbene resveratrol; MIC (Haemophilus influenzae): 32 µg/mL (≈ 98 µM); MIC (Haemophilus influenzae; Exp 2): 32 µg/mL (≈ 98 µM); MIC (Pseudomonas aeruginosa): > 64 µg/mL; MIC (Pseudomonas aeruginosa; Exp 2): >64 µg/mL; MIC (Klebsiella pneumoniae): > 64 µg/mL; MIC (Klebsiella pneumoniae; Exp 2): >64 µg/mL; MIC (Staphylococcus aureus; [16]): 32 µg/mL (≈ 98 µM); MIC (Staphylococcus aureus; [17]): 16 µg/mL (≈ 49 µM); MIC (Staphylococcus aureus; [18]): 16 µg/mL (≈ 49 µM); MIC (Staphylococcus aureus; [19]): 16 µg/mL (≈ 49 µM)
3 | COc1cc(/C=C/c2cc(O)cc(O)c2CC=C(C)C)ccc1O [USYDS10, (E)-2-(3-methyl-2-buten-1-yl)-3,4′,5-trihydroxy-3′-methoxystilbene] |  |  |  |  |  |  |  |  |  |  |  |  |  |  |  |  | TrkA | PI3Kα | PI3Kγ | PI3Kδ | Kinases that inhibited more than 60% (CDK2/CyclinA2): CDK2/CyclinA2; Kinases that inhibited more than 60% (FLT3): FLT3; Kinases that inhibited more than 60% (PI3Kβ): PI3Kβ; TGI (BT-549; BT-549, unit not printed (M)): 1.90E−5; GI50 (BT-549; BT-549, unit not printed (M)): 0.798 µM; CC50 (BT-549; BT-549, unit not printed (M)): 49.3 µM
4 | CC(C)=CCOc1cc(O)cc(/C=C/c2ccc(O)c(O)c2)c1CC=C(C)C [USYDS14, (E)-2-(3-methyl-2-buten-1-yl)-3-(3-methyl-2-butenyloxy)-3′,4′,5-trihydroxystilbene] |  |  |  |  |  |  |  |  |  |  |  |  |  |  |  |  |  |  |  |  | TGI (BT-549; BT-549, Breast Cancer): 1.63e-05 M; GI50 (BT-549; BT-549, Breast Cancer): 4.27 µM; CC50 (BT-549; BT-549, Breast Cancer): 46.9 µM
